According to patent US11932636B2, “RAD51 inhibitors” (Cyteir Therapeutics, Inc., priority 2019, dated 2024):

Test system: Daudi cells (AID positive)
Test: Compound primary screening: cell death in AID positive Daudi cells (Cell-Titer Glo, Day 7)
Format: cell-based
Settings: Homo sapiens, 168 h; Daudi cells, AID positive; cell death on Day 7, Cell-Titer Glo; read-out: Cellular activity in AID + (Daudi)
Experimental: Example 149. Compound Primary Screening
AID expressing cells are dependent upon RAD51 for survival; inhibiting RAD51 in AID positive cells results in a cytotoxic effect.
A 96 well u-bottom plate was prepared by writing the experiment number, plate number, date and initials in the top right corner of the plate lid. With a sterile 300 ml reservoir, and 25 ml serological pipette, evaporation buffer media was pipetted into reservoir in 25 ml increments. Using the liquid handler, 150 ul of evaporation buffer media was pipetted from reservoir into rows A and H, and Columns 1 and 12 of the 96 well u-bottom plate. Cell cultures were counted to obtain the density of cells per ml, and the culture viability. The cell density information was used to obtain 1,000,000 cells from culture using a 5 mL serological pipette into an epi tube. The cell density information from the culture was used to calculate the number of cells and volume of media needed for the assay to seed 1250 cells in 130 ul of media per available culture well in the 96 well u-bottom plate. Rows B through F were used for cells (50 wells in total), with row G left for an empty media control. The calculation was overestimated by 10 mL to account for the dead volume in the 300 ml reservoir. Once the media volume was calculated, the appropriate volume of media was pipetted in 25 mL increments into the 250 mL bottle using a 25 mL serological pipette. The 250 ml bottle was capped tightly, and placed into a 37° C. water bath for 2 minutes. While the culture media was warming, 10 mL of fresh media was pipetted from the 500 mL culture media bottle into a sterile 25 mL reservoir. Using the Eppendorf multichannel pipette, 130 ul of media was pipetted from the 25 mL reservoir into row G of the 96 well u-bottom plate. Once the 250 mL bottle of media was warmed, the volume of culture needed was pipetted into the bottle, and mixed gently with a 25 mL serological pipette as to not create bubbles, and then the contents of the bottle were pipetted into a new 300 mL reservoir. Using the liquid handler, 130 ul of culture was pipetted from the 300 mL reservoir into rows B through F of the 96 well u-bottom plate. Once the culture was added, the plate was placed into a 37° C. incubator until the compound master plate was prepared for use.
Two 96 well u-bottom plates were prepared by writing the master plate name in the upper right corner of the plate lid. Labeling one DMSO master and the other Media Master. The compounds of interest were obtained from the laboratory freezer, and placed into a 25 well storage box with a lid, and set the box aside. The compounds were vortexed after thawing but before use. Using an automatic multichannel pipette, 20 ul of 100% DMSO was pipetted into wells B3-B11 through G3-G11 of the DMSO master plate. For each compound on the master plate, 50 ul of the compound were pipetted in the appropriate well of row 2 (reference plate map to determine appropriate well). A serial dilution was prepared beginning by aspirating 20 ul from row 2 and mixing with row 3, repeating until row 11 was reached. Using the liquid handler, 194 ul of Daudi media was dispensed into wells B2-B11 through G2-G11 of the Media master plate. Using the liquid handler, 6 ul from the DMSO master plate was aspirated and dispensed into the media master plate, mixing 100 ul twice.
Compounds from master plate were then added to the culture plate. The culture plates were removed from the incubator, and set inside the biosafety cabinet. Using a liquid handler, 20 ul from wells B2 to B11 through G2 to G11 of master plate were aspirated, and dispensed into wells B2 to B11 through G2 to G11 of culture plate. This set was continued with each culture plate. Once the culture plates acquired their 20 ul of compound dilutions, they were placed back into the incubator, until their reads on Day 7 of experiment.
Cell death was measured on Day 7 of the experiment using Cell-Titer Glo and a Promega Plate reader.

`CCNS(=O)(=O)c1cc(Nc2cn[nH]c2)ccc1-c1cnc([C@H]2CC[C@H](NC(=O)OC(C)C)CC2)s1` [Compound 120, isopropyl trans-N-[4-[5-[2-(ethylsulfamoyl)-4-[(1H-pyrazol-4-yl)amino]phenyl]thiazol-2-yl]cyclohexyl]carbamate] and `CCNS(=O)(=O)c1cc(Nc2cccnc2)ccc1-c1cnc([C@H]2CC[C@H](NC(=O)OC(C)C)CC2)s1` [Compound 128, isopropyl trans-N-[4-[5-[2-(ethylsulfamoyl)-4-[(pyridin-3-yl)amino]phenyl]thiazol-2-yl]cyclohexyl]carbamate] cannot be ordered by EC50: under 100 nM for the first, under 100 nM for the second.

Compared with `CCNS(=O)(=O)c1cc(Nc2cncc(C(C)C)n2)ccc1-c1cnc([C@H]2CC[C@H](NC(=O)OC(C)C)CC2)s1` [Compound 140, isopropyl trans-N-[4-[5-[2-(ethylsulfamoyl)-4-[(6-isopropylpyrazin-2-yl)amino]phenyl]thiazol-2-yl]cyclohexyl]carbamate], `CCNS(=O)(=O)c1cc(Nc2ccc(C(C)C)cn2)ccc1-c1cnc([C@H]2CC[C@H](NC(=O)OC(C)C)CC2)s1` [Compound 113, isopropyl trans-N-[4-[5-[2-(ethylsulfamoyl)-4-[(5-isopropyl-2-pyridyl)amino]phenyl]thiazol-2-yl]cyclohexyl]carbamate] is lower in EC50: 100 to 1000 nM for the first, under 100 nM for the second. The second is the more potent here.

`Cc1ncc(-c2ccc(-c3cnc([C@H]4CC[C@H](NC(=O)OC(C)C)CC4)s3)c(S(=O)(=O)NC(C)(C)C)c2)s1` [Compound 14, isopropyl (trans-4-(5-(2-(N-(tert-butyl)sulfamoyl)-4-(2-methylthiazol-5-yl)phenyl)thiazol-2-yl)cyclohexyl)carbamate] and `COCCOc1ccc(-c2cnc([C@H]3CC[C@H](NC(=O)OC(C)C)CC3)s2)c(S(=O)(=O)NC(C)(C)C)c1` [Compound 31, isopropyl (trans-4-(5-(2-(N-(tert-butyl)sulfamoyl)-4-(2-methoxyethoxy)phenyl)thiazol-2-yl)cyclohexyl)carbamate] fall in the same range of EC50: 1000 to 10000 nM for the first, 1000 to 10000 nM for the second.

`CCNS(=O)(=O)c1cc(Nc2cnccn2)ccc1-c1cnc([C@H]2CC[C@H](NC(=O)OC(C)C)CC2)s1` [Compound 122, isopropyl trans-N-[4-[5-[2-(ethylsulfamoyl)-4-[(pyrazin-2-yl)amino]phenyl]thiazol-2-yl]cyclohexyl]carbamate] and `CCNS(=O)(=O)c1cc(Nc2ccc(CC)nn2)ccc1-c1cnc([C@H]2CC[C@H](NC(=O)OC(C)C)CC2)s1` [Compound 157, isopropyl trans-N-[4-[5-[4-[(6-ethylpyridazin-3-yl)amino]-2-(ethylsulfamoyl)phenyl]thiazol-2-yl]cyclohexyl]carbamate] cannot be ordered by EC50: under 100 nM for the first, under 100 nM for the second.

Compared with `CCNS(=O)(=O)c1cc(C(=O)Nc2ncc[nH]2)ccc1-c1cnc([C@H]2CC[C@H](NC(=O)OC(C)C)CC2)s1` [Compound 94, isopropyl trans-N-[4-[5-[2-(ethylsulfamoyl)-4-(1H-imidazol-2-ylcarbamoyl)phenyl]thiazol-2-yl]cyclohexyl]carbamate], `CCNS(=O)(=O)c1cc(C#N)ccc1-c1cnc([C@H]2CC[C@H](NC(=O)OC(C)C)CC2)s1` [Compound 36, isopropyl trans-N-[4-[5-[4-cyano-2-(ethylsulfamoyl)phenyl]thiazol-2-yl]cyclohexyl]carbamate] is higher in EC50: under 100 nM for the first, 1000 to 10000 nM for the second.

First: CC(C)OC(=O)N[C@H]1CC[C@H](c2ncc(-c3ccc(OCCN(C)C)cc3S(=O)(=O)NC(C)(C)C)s2)CC1 [Compound 30, isopropyl (trans-4-(5-(2-(N-(tert-butyl)sulfamoyl)-4-(2-(dimethylamino)ethoxy)phenyl)thiazol-2-yl)cyclohexyl)carbamate]
Second: CCNS(=O)(=O)c1cc(Nc2nccn2CC(C)C)ccc1-c1cnc([C@H]2CC[C@H](NC(=O)OC(C)C)CC2)s1 [Compound 107, isopropyl trans-N-[4-[5-[2-(ethylsulfamoyl)-4-[(1-isobutylimidazol-2-yl)amino]phenyl]thiazol-2-yl]cyclohexyl]carbamate]
The EC50 of the first is higher: over 10000 nM for the first, under 100 nM for the second. The second is the more potent here.
